Measurements as given in patent publication US20050232902A1, “Injectable bioartificial tissue matrix” (priority 2004, published 2005).

Tests used:
[1] = test system: injured myocardium; experiment: Transplantation of hES-derived cardiomyocytes pretreated with ascorbic acid into LAD-ligated heart, graft/infarct ratio; assay type: in vivo, Mice
Description: The ascorbic acid-treated cells can become large conglomerates of cells in the injected tissue and thereby can restore major portions of a damaged heart muscle when compared with tissue injected with untreated cells. The proportion of host tissue target organ restored by the grafted cultured cells can be evaluated by a measure termed the “graft/infarct ratio”. The graft/infarct ratio is the ratio of the portion of the ‘dead tissue’ area of the target organ that is restored and/or replaced by transplanted cells of bioartificial tissue. The ratio is determined by dividing a measured area of the restored and/or replaced area by the total measured area of ‘dead tissue’. In addition, a measure or growth and/or of viability can be determined by other methods known in the art. Such methods include, staining of tissue slices with trypan blue to determine extent of dye exclusion, determining nucleic acid uptake of tritiated thymidine into proliferating cells, and staining of tissue slices with toluidin blue to determine extent of dye uptake.
Human ES (hES) cell lines, H1 and H7 (Mummery et al., (2002) supra; Hescheler, B. K. et al. (1997) Cardiovasc. Res. 36:149-162) were initially maintained on feeders in ES medium containing 80% knockout Dulbecco's modified Eagle's medium (KO-DMEM) (Invitrogen, Carlsbad Calif.), 1 mM L-glutamine, 0.1 mM β-mercaptoethanol, 1% nonessential amino acids stock (Invitrogen), 20% Serum Replacement (Invitrogen, Carlsbad Calif.) and 4 ng/ml hbFGF (Invitrogen). The cells were later maintained using feeder-free conditions, herein described. Briefly, feeder-free cultures were passaged by incubation in 200 units/ml collagenase IV for 5-10 minutes at 37° C., dissociated and then seeded onto MATRIGEL-coated plates and maintained in conditioned medium (CM) prepared from primary mouse embryonic fibroblast cultures.
Confluent H7 hES cell cultures were incubated with 0.5 mM EDTA in phosphate-buffered saline (PBS) at 37° C. for 8 min, dissociated, resuspended in CM and replated onto MATRIGEL-coated plates at ˜1×10^6 cells/cm^2. […]

[2] = test system: transplant cell viability and colonization; experiment: Adjuvants compared with ascorbic acid in transplantable cell cultures (Example VI); assay type: in vivo; conditions: treatment of cells prior to transplantation into a target organ
Description: In separate experiments, treatment with other adjuvants or treatments were compared with treatment with ascorbic acid. [formula]

[3] = test system: chondrocytes; conditions: cited from earlier work

O=C1O[C@H]([C@@H](O)CO)C(O)=C1O [ascorbic acid]
Increase of graft/infarct ratio compared with untreated cells ([1]; 24 hours (treated) vs six hours (untreated, R=0.09:1.0) after transplantation): 4.6 fold | Effects on colonization and viability of pretreated cells at subsequent time points ([1]; 7 days, 14 days, and 28 days following transplantation): sustained | Area of the tissue populated by transplanted cells ([1]; cells pretreated 24 hrs with 1 mM ascorbic acid, 24 hours following transplantation, total damaged area 536,594 μm^2, FIG. 5): 215,525 μm^2 | Increase in transplant cell viability and colonization [2]: at least 47 fold | Viable cells in the gelled culture ([3]; 2×10^5 cells starting number, 50 μg/ml ascorbic acid, three weeks in vitro): approximately 12×10^5 cells | Increase in cell viability ([3]; chondrocytes incubated three weeks in vitro vs absence of ascorbic acid): approximately ten-fold | Viable cells after three weeks incubation ([3]; starting number 2×10^6 cells): 2.6×10^6 cells
